Reference: patent US7071194B2, “Method for improving respiratory function and inhibiting muscular degeneration” (priority 2000, dated 2006)

Assays:
Assay type in all cases: in vivo, rat
T8 SCI rats [1] = assay: Respiratory function by head-out plethysmograph in conscious rats after T8 contusion SCI; settings: for Te (expiratory time) / Ti (inspiratory time) / Tv (tidal volume) / Ve (minute ventilation) / f (respiratory rate): 24 hours post SCI, baseline (room air), rats 360-390 g
Experimental: Female Sprague-Dawley rats (250–280 g and 360–390 g; Taconic, Germantown, N.Y.) were anesthetized with 4% chloral hydrate (360 mg/kg, i.p.). An incomplete spinal courd contusion injury was produced at T8 with a weight drop device (10 g×2.5 cm) as previously described (Wrathall et al., 1985). After SCI, manual expression of bladders was performed twice daily until a reflex bladder was established. Animal care also included housing the rats in pairs to reduce isolation-induced stress, maintaining ambient temperature at 22–25° C., and using highly absorbent bedding. No prophylactic antibiotics were given.
(§1) Experiments were conducted in unanesthetized, awake, spontaneously breathing rats at 24 hours prior to SCI, at 24 hours p.i. and weekly afterwards at 1,2,3, and 4 weeks p.i. (1) Acclimatization of the Animals. […] Animals were placed in the body cylinder of the plethysmograph (FIG. 1a) for 60 minutes per day for at least 5 days. […] (2) Non-Invasive Measurements of Respiratory Rate, Tidal Volume and Minute Ventilation. Non-invasive measurements of respiratory function in conscious rats were performed with a restrained head-out plethysmograph specially designed for rodents (BUXCO Electronics, Inc., Sharon, Conn.) (FIG. 1a). The plethymograph apparatus has a neck seal that prevents leakage of air from between the animal's neck and the plethymograph opening. Displacement of the thoracic wall produced by the animal's respiratory movements causes changes in the cylinder pressure, which results in air flowing across a pneumotachograph located on the wall of the cylinder. The pressure drop across the pneumotachograph is measured with a pressure transducer and is proportional to the flow. This signal is amplified and integrated into volume. From measurements of volume and flow, a computer and appropriate software provides respiratory parameters, such as respiratory rate (f), tidal volume (Vt), minute ventilation (Ve), peak inspiratory flow, peak expiratory flow, inspiratory time (Ti), expiratory time (Te), and accumulated volume. An additional opening on the wall of the box allows volume calibration by injecting and removing air from the box with a calibrated syringe.
(§2) The noise level in the laboratory was kept to a minimum in order not to startle the animals. Further, the animals were visually isolated from the investigators by means of a chamber made of an opaque material that surrounded and covered the front-end of the body plethysmograph (FIG. 1b). Baseline recordings lasted for 4 minutes. (3) Measurement of Ventilatory Response to Carbon Dioxide. For measurement of the ventilatory response to CO2, animals were exposed to air containing 7% CO2. The animals breathed from a funnel fixed in the front wall of a chamber made of an opaque material (FIG. 1b). The animals were exposed to the gas mixture containing 7% CO2 (mixed with 60% O2 and 33% N2) for 5 minutes with recording of respiratory activity for another 2 minutes (a total recording duration of 7 minutes).
(§3) The 5HT1A receptor antagonist, p-MPPI (RBI, Natick, Mass.) was also dissolved in 0.9% saline and given i.p. in a dose of 3 mg/kg (pH 7.4 and final volume of 0.5 ml). […] Vehicle solution (VEH) was 0.9% saline and also injected at i.p. (pH 7.4; volume: 0.5 ml/rat).
Baseline respiratory function was measured under room air ventilation and after the animal was stabilized inside a boy cylinder (FIGS. 1a and b) for 30 minutes at each time point prior to SCI and after injury. Immediately following the evaluation of baseline respiration, the animals were let to breathe air containing 7% CO2 for 7 minutes to monitor their ventilatory response to CO2 stimulus (Teng et al., 1998a and 1999).

normal conscious rats = assay: Respiratory function by head-out plethysmograph in normal conscious rats; settings: p-MPPI 3 mg/kg i.p., n=3
Experimental: as §1, §2, §3

T8 SCI rats [2] = assay: Respiratory function by head-out plethysmograph in conscious rats after T8 contusion SCI; settings: p-MPPI 2 mg/kg i.p., dose titration experiments
[3] = 24 hours p.i., p-MPPI 3 mg/kg i.p. 20 minutes before 8-OH-DPAT
[4] = 3 & 4 min post p-MPPI 3 mg/kg i.p.
[5] = 19 & 20 min post p-MPPI 3 mg/kg i.p.

COc1ccccc1N1CCN(CCN(C(=O)c2ccc(I)cc2)c2ccccn2)CC1 [p-MPPI, 4-(2′-methoxyphenyl)-1-[2′-[N-(2″-pyridinyl)-p-iodobenzamido]ethyl]piperazine]
effect of pre-treatment on 8-OH-DPAT effects on respiration (T8 SCI rats [1]; [3]): significantly suppressed | effect of pre-treatment on 8-OH-DPAT stimulation of ventilatory response to 7% CO2 (T8 SCI rats [1]; [3]): significantly blocked | Te (expiratory time) (T8 SCI rats [1]; [4]): 0.28 ± 0.02↓ | Ti (inspiratory time) (T8 SCI rats [1]; [4]): 0.33 ± 0.01 | Tv (tidal volume) (T8 SCI rats [1]; [4]): 0.75 ± 0.08↓ ml | Ve (minute ventilation) (T8 SCI rats [1]; [4]): 76.9 ± 4.6↓ ml/min | f (respiratory rate) (T8 SCI rats [1]; [4]): 103.2 ± 5.4↑ breaths/min | Te (expiratory time) (T8 SCI rats [1]; [5]): 0.54 ± 0.10 | Ti (inspiratory time) (T8 SCI rats [1]; [5]): 0.28 ± 0.04 | Tv (tidal volume) (T8 SCI rats [1]; [5]): 0.77 ± 0.08↓ ml | Ve (minute ventilation) (T8 SCI rats [1]; [5]): 57.8 ± 4.1↓ ml/min | f (respiratory rate) (T8 SCI rats [1]; [5]): 76.2 ± 7.7 breaths/min | effect of p-MPPI per se on respiratory function (normal conscious rats): No significant impacts | block of stimulating effects of 8-OH-DPAT on respiratory function (T8 SCI rats [2]): substantially block
